Results reported in patent US20220257592A1, “METHODS OF TREATING CANCER” (HOFFMANN-LA ROCHE INC., priority 2019, published 2022).

Assay: Circulating exposure at steady-state in patients
Format: in vivo, human

O=C(Nc1n[nH]c2ccc(Cc3cc(F)cc(F)c3)cc12)c1ccc(N2CCNCC2)cc1NC1CCOCC1 [M5]
circulating M5 exposure as share of corresponding entrectinib exposure: 40%
